This is an account of results in ChEMBL document CHEMBL1201862, “PubChem BioAssay data set” (2004).

Data set [1] has as its target T1, Coagulation factor XII (Homo sapiens, UniProt P00748).
T1 sequence (P00748 whole entry): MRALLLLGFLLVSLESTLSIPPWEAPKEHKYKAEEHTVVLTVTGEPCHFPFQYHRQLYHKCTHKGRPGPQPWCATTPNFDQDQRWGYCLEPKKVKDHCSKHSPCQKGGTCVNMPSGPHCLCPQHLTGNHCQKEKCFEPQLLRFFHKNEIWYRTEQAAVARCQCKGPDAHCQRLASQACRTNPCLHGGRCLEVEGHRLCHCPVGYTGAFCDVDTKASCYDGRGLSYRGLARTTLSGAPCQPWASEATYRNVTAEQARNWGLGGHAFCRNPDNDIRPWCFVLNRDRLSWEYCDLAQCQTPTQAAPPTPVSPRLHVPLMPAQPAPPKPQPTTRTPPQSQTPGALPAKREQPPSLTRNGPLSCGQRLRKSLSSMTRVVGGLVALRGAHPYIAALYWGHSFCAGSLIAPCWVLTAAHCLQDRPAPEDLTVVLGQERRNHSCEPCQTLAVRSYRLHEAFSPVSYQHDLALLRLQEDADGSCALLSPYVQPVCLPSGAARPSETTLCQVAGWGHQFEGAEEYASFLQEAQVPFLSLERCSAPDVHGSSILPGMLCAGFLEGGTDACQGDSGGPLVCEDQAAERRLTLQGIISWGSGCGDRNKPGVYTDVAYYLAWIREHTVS
Nature of the data set: activated coagulation factor XII inhibitor potency, concentration-effect curve, cell-free (AID 716). In kind it is functional.

Data set [2] addresses Hexokinase (Trypanosoma brucei, UniProt Q38C41). Nature of the data set: Confirmation assay for inhibitors of Trypanosoma brucei hexokinase 1-Analogue-first series. [Related pubchem assays (depositor defined):AID1430, AID1632, AID2516, AID2560, AID2579, AID2600, AID449725, AID492951]. In kind it is functional.
In data set [3] the target is T2, Sphingosine 1-phosphate receptor 4 (Homo sapiens, UniProt O95977).
T2 sequence (O95977 whole entry): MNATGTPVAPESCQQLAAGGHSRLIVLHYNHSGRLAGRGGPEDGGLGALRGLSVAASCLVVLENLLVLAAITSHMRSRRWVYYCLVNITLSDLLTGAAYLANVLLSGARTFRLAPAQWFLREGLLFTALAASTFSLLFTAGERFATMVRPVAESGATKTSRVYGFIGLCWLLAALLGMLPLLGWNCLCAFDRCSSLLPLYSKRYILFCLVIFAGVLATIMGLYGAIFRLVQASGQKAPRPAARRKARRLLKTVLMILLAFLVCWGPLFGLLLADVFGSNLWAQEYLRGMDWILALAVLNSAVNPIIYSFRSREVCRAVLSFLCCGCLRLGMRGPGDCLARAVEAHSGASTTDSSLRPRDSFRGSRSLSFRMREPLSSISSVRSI
Nature of the data set: Fluorescence dose response cell-based high throughput screening assay for agonists of the Sphingosine 1-Phosphate Receptor 4 (S1P4). [Related pubchem assays: 1509 (Primary screen.), 1523 (Confirmation screen in triplicates.)]. It counts as functional.

Data set [4] has as its target Sphingosine 1-phosphate receptor 1 (Homo sapiens, UniProt P21453). Nature of the data set: Fluorescence-based counterscreen assay for S1P4 agonists: Cell-based dose response high throughput screening assay to identify agonists of the Sphingosine 1-Phosphate Receptor 1 (S1P1). [Related pubchem assays (depositor defined):AID1509, AID1523, AID1801, AID463107, AID463118, AID463119, AID463122, AID463123, AID463129, AID463225, AID504400, AID504460]. It counts as functional.

Data set [5] addresses Nucleotide-binding oligomerization domain-containing protein 1 (Homo sapiens, UniProt Q9Y239). Nature of the data set: blockers of NOD1 pathway activity – revised, SAR follow-up (AID 2333). In kind it is functional.
The target of data set [6] is Tumor necrosis factor (Homo sapiens, UniProt P01375). In words: analog potency on TNFa NF-kB signaling – cell-based, revised, SAR follow-up (AID 2337). In kind it is functional.
Chain of Tumor necrosis factor (P01375 whole entry): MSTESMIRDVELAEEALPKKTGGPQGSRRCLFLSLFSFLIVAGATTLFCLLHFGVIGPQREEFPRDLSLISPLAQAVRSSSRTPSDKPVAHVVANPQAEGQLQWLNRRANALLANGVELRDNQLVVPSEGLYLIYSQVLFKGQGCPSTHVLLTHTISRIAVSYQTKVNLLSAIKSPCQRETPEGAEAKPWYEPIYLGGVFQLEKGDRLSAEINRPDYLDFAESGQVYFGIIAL
The subject of data set [7] is HEK293. In words: cells. The note with it: Homo sapiens.
Data set [8] has as its target Protein Tat (Human immunodeficiency virus type 1 group M subtype B (isolate HXB2)(HIV-1), UniProt P04608). It counts as functional.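 Note: tat binding to TAR RNA read out by fluorescence polarization.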
Data set [9] deals with Bcl-2-like protein 10 (Homo sapiens, UniProt Q9HD36). In words: Bcl-B/TR3 peptide binding disruption – biochemical, fluorescence polarization, FITC-TR3 peptide, selectivity assay for Bfl-1 inhibitor project, primary screen (AID 748).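 Note: fluorescence polarization from a fluorescein-labelled TR3 peptide binding purified Bcl-B.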
Chain of Bcl-2-like protein 10 (Q9HD36 whole entry): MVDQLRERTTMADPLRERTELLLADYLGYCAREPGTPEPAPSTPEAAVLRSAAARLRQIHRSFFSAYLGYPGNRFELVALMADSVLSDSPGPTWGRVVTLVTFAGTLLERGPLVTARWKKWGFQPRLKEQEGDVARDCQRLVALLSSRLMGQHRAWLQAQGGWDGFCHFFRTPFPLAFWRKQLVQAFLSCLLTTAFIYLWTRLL
The target of data set [10] is Bcl-2-like protein 1 (Homo sapiens, UniProt Q07817). Nature of the data set: blockers of BCLXL peptide binding – biochemical, fluorescence polarization, 1536-well, selectivity assay for MCL1 inhibitor project, dose response (AID 2218).
Chain of Bcl-2-like protein 1 (Q07817 whole entry): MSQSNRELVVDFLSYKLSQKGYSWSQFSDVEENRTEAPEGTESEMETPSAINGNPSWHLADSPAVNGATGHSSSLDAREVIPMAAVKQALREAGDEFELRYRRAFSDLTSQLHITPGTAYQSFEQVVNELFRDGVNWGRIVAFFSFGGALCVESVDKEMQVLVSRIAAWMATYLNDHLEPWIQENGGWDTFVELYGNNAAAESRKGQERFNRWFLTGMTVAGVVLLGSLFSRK
For data set [11], the target named is Induced myeloid leukemia cell differentiation protein Mcl-1 (Homo sapiens, UniProt Q07820). Nature of the data set: blockers of MCL1 binding to BIM peptide – biochemical, fluorescence polarization, BIM-BH3 peptide, 1536-well, dose response (AID 2217).
Chain of Induced myeloid leukemia cell differentiation protein Mcl-1 (Q07820 whole entry): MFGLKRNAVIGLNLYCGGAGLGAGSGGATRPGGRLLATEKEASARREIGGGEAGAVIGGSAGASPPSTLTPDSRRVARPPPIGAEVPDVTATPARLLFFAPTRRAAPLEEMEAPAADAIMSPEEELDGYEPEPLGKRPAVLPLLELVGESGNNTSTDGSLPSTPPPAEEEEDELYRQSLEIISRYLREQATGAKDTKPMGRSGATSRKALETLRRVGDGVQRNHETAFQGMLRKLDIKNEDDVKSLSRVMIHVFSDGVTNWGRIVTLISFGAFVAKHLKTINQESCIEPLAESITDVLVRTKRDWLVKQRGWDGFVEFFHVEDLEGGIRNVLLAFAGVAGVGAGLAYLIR
The target in data set [12] is Estrogen receptor beta (Homo sapiens, UniProt Q92731). Nature of the data set: blockers of SRC-3 recruitment to ERβ – biochemical, ELISA, streptavidin-HRP readout, orthogonal assay, confirmation (AID 1060).
Chain of Estrogen receptor beta (Q92731 whole entry): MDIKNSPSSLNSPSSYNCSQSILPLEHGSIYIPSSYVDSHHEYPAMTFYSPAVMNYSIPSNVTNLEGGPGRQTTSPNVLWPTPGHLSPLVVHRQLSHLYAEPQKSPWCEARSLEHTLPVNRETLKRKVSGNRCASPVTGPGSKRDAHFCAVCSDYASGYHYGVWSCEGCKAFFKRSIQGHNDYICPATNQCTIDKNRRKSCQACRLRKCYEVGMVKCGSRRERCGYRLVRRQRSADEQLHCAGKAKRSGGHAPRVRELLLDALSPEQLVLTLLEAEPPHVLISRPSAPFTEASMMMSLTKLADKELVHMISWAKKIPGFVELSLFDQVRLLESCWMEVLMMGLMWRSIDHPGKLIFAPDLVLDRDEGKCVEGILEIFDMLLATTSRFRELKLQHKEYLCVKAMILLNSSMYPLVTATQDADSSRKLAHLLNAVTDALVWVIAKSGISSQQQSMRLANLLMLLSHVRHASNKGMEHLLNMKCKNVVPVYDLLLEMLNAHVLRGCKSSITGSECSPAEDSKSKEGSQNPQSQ
Data set [13] in a line: viability loss in THP-1 monocytes – THP-1 cells, cytotoxicity control for Vif-APOBEC3G degradation inhibitor project, dose response (AID 1117359). In kind it is functional. The note with it: THP-1.
Data set [14] deals with T3, Microphthalmia-associated transcription factor (Homo sapiens, UniProt O75030).
T3 sequence (O75030 whole entry): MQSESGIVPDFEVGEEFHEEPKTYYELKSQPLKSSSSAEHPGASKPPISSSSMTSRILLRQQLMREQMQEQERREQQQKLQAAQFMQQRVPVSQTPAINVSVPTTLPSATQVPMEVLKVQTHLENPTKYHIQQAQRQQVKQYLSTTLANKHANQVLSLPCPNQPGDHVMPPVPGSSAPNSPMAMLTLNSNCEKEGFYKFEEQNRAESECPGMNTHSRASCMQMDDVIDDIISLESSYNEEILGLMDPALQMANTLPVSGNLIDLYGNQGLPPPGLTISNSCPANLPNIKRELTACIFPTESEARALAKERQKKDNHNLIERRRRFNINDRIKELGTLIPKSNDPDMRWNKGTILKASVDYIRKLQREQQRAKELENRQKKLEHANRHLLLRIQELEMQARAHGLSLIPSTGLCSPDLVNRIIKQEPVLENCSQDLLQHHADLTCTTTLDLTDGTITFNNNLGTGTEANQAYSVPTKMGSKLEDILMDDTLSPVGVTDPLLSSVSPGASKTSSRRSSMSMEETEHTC
In words: reducers of TRPM1 reporter luminescence, concentration series – cell-based, SK-MEL-5, cherry-picked, set 3, MITF inhibitor project, dose response (AID 493073).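 Note: SK-MEL-5 melanoma cells with luciferase driven by the MITF target TRPM1 promoter.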 It counts as functional.

Data set [15] concerns HEK293. Nature of the data set: inhibition of NOD1-driven NF-kB reporter – cell-based, luminescence, uHTS, primary screen (AID 1578). The note with it: Homo sapiens. It counts as functional.
The test system of data set [16] is HEK293. Nature of the data set: cells. It counts as functional, cell-based. The note with it: Homo sapiens.
The test system of data set [17] is HEK293. In words: cells. The note with it: Homo sapiens. It counts as functional, cell-based. The source holds these as a separate data set.
Data set [18] deals with HEK293. Nature of the data set: NOD2 signaling inhibitors in MDP-stimulated cells, cell-based, uHTS, luminescence (AID 2001). The note with it: Homo sapiens. It counts as functional.
The target in data set [19] is T4, E3 ubiquitin-protein ligase XIAP (Homo sapiens, UniProt P98170). In words: small molecules displacing peptide from XIAP – biochemical, IAP family, fluorescence polarization (AID 1018). It counts as functional.
T4 sequence (P98170 whole entry): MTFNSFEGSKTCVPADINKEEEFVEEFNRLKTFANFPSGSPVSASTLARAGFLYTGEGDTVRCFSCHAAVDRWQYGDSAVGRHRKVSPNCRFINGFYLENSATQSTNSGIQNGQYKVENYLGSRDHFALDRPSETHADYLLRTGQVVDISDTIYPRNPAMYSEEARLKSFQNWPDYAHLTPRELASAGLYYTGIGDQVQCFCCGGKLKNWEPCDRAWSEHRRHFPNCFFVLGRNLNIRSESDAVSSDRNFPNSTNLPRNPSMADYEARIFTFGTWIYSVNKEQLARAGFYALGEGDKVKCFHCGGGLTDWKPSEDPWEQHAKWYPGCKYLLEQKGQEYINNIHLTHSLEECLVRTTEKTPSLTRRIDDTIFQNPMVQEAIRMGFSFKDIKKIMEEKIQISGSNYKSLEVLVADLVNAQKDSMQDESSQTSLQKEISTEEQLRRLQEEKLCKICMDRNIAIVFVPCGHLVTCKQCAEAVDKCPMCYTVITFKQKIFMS
Data set [20] concerns the target T4, E3 ubiquitin-protein ligase XIAP. In words: Counter Screen using XIAP-Bir3 for Chemical Antagonists of Bir1/2 domains of IAP-family anti-apoptotic proteins. [Related pubchem assays (depositor defined):AID1018, AID1449, AID1514, AID1638, AID1749, AID1750, AID488957, AID488963].
Data set [21] deals with Genome polyprotein (dengue virus type 2, UniProt P29990). In words: flavivirus cap methylation enzyme inhibition – biochemical, confirmation dose response, primary screen (AID 588689). In kind it is functional.
The target of data set [22] is T5, Alkaline phosphatase, tissue-nonspecific isozyme (Homo sapiens, UniProt P05186).
T5 sequence (P05186 whole entry): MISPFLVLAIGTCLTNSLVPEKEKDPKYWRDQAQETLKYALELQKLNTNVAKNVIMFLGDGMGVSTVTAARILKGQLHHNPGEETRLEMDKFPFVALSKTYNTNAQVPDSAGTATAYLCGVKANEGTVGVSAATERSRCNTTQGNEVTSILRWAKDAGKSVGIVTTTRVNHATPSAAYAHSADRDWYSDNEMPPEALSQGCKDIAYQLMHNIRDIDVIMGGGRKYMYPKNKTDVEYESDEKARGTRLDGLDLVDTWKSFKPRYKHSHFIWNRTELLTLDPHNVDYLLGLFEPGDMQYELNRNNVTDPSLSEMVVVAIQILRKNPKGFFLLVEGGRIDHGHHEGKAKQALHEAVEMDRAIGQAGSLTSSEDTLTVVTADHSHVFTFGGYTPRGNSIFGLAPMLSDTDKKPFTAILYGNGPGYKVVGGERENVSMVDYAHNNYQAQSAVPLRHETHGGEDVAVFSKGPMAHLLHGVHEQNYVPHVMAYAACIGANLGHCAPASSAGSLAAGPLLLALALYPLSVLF
In words: potency against alkaline phosphatase TNAP – biochemical, luminescent, dose response, SAR follow-up (AID 1056).

The target in data set [23] is Glyceraldehyde-3-phosphate dehydrogenase (Homo sapiens, UniProt P04406).
Chain of Glyceraldehyde-3-phosphate dehydrogenase (P04406 whole entry): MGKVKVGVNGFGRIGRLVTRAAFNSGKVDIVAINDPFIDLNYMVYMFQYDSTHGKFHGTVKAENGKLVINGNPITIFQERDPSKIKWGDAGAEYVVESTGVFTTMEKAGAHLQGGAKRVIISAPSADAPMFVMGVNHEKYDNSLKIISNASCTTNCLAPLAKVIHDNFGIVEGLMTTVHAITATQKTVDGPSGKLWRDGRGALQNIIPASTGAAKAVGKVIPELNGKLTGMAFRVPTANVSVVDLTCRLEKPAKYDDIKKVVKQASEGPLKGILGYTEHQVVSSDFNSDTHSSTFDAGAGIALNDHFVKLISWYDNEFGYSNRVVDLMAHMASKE
For data set [24], the target named is T2, Sphingosine 1-phosphate receptor 4. Nature of the data set: Late-stage fluorescence dose response cell-based assay to identify agonists of the Sphingosine 1-Phosphate Receptor 4 (S1P4): purchased compounds EC50. [Related pubchem assays (depositor defined):AID1509, AID1523, AID1563, AID1686, AID1701, AID1801]. It counts as functional.
In data set [25] the target is Cytochrome P450 3A4 (Homo sapiens, UniProt P08684).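 Note: CYP3A4 tested as one member of a cytochrome P450 panel screen.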
Chain of Cytochrome P450 3A4 (P08684 whole entry): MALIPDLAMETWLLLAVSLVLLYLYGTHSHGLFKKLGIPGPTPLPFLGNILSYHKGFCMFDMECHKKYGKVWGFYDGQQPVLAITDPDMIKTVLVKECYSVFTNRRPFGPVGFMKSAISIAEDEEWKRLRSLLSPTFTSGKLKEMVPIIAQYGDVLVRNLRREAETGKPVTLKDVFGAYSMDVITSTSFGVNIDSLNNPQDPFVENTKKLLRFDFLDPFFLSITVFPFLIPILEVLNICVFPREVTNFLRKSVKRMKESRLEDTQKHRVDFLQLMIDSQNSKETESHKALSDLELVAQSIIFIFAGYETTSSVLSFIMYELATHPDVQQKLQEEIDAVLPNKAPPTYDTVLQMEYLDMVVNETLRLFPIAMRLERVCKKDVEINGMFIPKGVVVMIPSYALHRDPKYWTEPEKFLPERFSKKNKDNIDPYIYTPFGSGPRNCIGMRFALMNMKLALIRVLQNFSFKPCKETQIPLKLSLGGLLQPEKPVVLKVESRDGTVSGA
For data set [26], the target named is Cytochrome P450 2D6 (Homo sapiens, UniProt P10635).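 Note: CYP2D6 member of a cytochrome P450 panel assay.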
In data set [27] the target is Cytochrome P450 2C19 (Homo sapiens, UniProt P33261). In words: Cytochrome panel assay with activity outcomes. Panel member name: p450-cyp2c19 Compounds with AC50 equal or less than 10 uM are considered active. The note with it: read-out: AC50. It counts as functional.

Each structure is given as a SMILES string. Active and inactive are the calls of the source. Where only a bound is given, the exact number is not on record here.

Chain of Sphingosine 1-phosphate receptor 1 (P21453 whole entry): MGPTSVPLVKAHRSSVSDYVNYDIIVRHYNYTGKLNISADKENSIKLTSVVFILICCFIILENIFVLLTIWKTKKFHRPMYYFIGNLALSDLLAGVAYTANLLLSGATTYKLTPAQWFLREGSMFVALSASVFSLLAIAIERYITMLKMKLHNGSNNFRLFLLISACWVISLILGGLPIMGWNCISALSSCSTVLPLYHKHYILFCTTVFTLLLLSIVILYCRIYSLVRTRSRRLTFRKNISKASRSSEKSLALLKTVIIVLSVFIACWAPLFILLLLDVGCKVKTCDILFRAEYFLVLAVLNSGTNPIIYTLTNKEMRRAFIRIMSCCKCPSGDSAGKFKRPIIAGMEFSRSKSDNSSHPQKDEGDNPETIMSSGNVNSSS
Chain of Hexokinase (Q38C41 whole entry): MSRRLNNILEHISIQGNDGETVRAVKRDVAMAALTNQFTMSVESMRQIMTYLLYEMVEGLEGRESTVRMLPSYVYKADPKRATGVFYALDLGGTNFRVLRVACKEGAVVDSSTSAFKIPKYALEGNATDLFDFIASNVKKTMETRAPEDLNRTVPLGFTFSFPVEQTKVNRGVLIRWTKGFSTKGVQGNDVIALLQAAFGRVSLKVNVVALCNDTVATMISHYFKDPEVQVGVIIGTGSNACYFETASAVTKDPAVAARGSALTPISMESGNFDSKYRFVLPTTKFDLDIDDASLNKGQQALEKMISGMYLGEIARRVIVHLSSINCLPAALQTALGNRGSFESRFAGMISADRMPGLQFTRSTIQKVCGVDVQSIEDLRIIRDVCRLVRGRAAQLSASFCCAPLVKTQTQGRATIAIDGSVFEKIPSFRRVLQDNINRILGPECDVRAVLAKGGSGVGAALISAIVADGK
Chain of Nucleotide-binding oligomerization domain-containing protein 1 (Q9Y239 whole entry, the tested form may be a part): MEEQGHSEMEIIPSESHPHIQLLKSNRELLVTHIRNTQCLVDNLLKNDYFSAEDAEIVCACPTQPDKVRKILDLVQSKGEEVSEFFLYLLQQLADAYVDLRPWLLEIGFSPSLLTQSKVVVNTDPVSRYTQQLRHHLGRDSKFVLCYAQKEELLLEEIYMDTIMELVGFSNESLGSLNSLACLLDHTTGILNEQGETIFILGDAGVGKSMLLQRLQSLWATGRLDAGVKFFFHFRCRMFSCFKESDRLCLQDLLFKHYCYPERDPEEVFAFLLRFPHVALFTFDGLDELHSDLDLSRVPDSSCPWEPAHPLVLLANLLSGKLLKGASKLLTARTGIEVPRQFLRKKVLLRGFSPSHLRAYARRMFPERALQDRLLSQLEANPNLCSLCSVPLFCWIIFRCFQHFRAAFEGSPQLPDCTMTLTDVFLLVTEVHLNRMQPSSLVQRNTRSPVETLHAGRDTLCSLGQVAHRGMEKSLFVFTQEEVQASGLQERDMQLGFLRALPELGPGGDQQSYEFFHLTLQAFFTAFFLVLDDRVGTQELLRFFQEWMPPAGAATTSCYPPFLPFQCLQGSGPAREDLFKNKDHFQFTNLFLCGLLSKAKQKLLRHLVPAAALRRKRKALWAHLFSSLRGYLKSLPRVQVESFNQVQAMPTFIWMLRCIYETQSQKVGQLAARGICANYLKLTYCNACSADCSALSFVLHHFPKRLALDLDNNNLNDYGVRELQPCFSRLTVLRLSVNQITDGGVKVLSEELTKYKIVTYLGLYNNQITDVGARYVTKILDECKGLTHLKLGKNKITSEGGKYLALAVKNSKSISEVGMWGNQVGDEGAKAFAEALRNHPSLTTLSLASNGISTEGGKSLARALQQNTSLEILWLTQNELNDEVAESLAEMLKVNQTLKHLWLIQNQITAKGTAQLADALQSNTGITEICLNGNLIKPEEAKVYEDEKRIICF
Chain of Protein Tat (P04608 whole entry): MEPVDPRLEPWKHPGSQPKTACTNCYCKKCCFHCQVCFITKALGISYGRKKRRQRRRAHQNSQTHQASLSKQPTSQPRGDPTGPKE

For the compound `O=C(Nc1ccc(Cl)c(Cl)c1)N1CC=CCC1`, the IC50 in data set [1] is > 50 µM (inactive).
For `Cc1cc(=O)n(-c2ccccc2)s1`, the IC50 in data set [2] was > 25 µM (inactive).
On to `Cc1cc(-n2c(=O)c(C#N)cc3c(=O)n4ccccc4nc32)no1`, for which the figures for the EC50 in data set [3] and in data set [4] were 4.43 µM (active) and 10.1 µM (inactive), respectively.
As for `O=C(Nc1ccc(S(=O)(=O)O)cc1)c1ccc(CN2CCc3ccccc3C2)cc1`, the IC50 in data set [5], in data set [6] and in [7] was > 20 µM (inactive) each time.
Take `CC(=N)/C(C#N)=C(/O)CSc1nnc(NC(C)C)s1`: the IC50 was > 100 µM (active) in [8]; 23.7 µM (active) in [9]; > 109 µM (not active) in data set [10]; 16.3 µM (not active) in [11]; < 0.023 µM (not active) in data set [12]. The CC50 in data set [13] is > 40 µM (active).
Turning to `N#Cc1c(-n2cccc2C=O)sc2c1CCCC2`, the EC50 in data set [3] is 32.2 µM (not active); in [4], > 49.8 µM (inactive).
In the case of `O=C(NCC1CCCO1)c1ccc(COCC(F)(F)C(F)F)cc1` (centres undefined), in data set [1], the IC50 was > 50 µM (inactive).
For `O=C(c1ccc(S(=O)(=O)Cc2ccccc2Cl)c([N+](=O)[O-])c1)N1CCN(c2ccccn2)CC1`, the AC50 in data set [14] is 9.49 µM (active). In addition, in data set [15], the EC50 is 11.8 µM (active). Moreover, the IC50 in [5] is 4.24 µM (active); in data set [16], > 20 µM (inactive); in data set [6], 4.53 µM (active); in data set [17] it was 2.81 µM (active); in data set [18], 3.63 µM (active); in data set [7], 16.3 µM (active).
As for `COc1ccc(-n2nc(C(=O)N3CCN(Cc4ccc5c(c4)OCO5)CC3)c3ccccc3c2=O)cc1`, the figures for the IC50 in data set [19] and in [20] were > 100 µM (not active) and > 100 µM (inactive), respectively.
For `CCc1c(C)sc(NC(=O)OC)c1C(=O)N1CCCCC1`, the IC50 was > 100 µM (active) in data set [21], > 25 µM (not active) in data set [19] and 54.6 µM (active) in data set [20].
Take `COc1ccc(OC)c(S(=O)(=O)Nc2ccc3ccccc3c2)c1`: the IC50 in data set [22] was > 10 µM (inactive); in data set [23] it was > 10 µM (inconclusive).
The matching figures for `O=S(=O)(Nc1cnc2ccccc2c1)c1cc(Cl)cc(Cl)c1O`: 69.6 µM (active) and > 100 µM (not active).
As to `Cc1ccc(OCc2cn3cc(Cl)ccc3n2)c([N+](=O)[O-])n1`, in data set [24], the EC50 was > 50 µM (inactive).
For the compound `COC(=O)N1CCC2(CC1)CCN(c1ccccn1)CC2`, the AC50 result was “inconclusive” in [25], 10 µM (inconclusive) in [26] and 10 µM (inconclusive) in [27].
Consider `Cc1ccc(OC(C)C(=O)Nc2ccc(Cl)cc2Cl)c([N+](=O)[O-])n1` (centres undefined), for which the EC50 in [24] is > 50 µM (inactive).
As to `CCCc1ccc(C(=O)Nc2cc(Cl)ccc2C(=O)O)cc1`, the IC50 in data set [2] is 4.54 µM (active).
